What was measured:
Format in all cases: in vivo, male Sprague-Dawley (SD) rats
blood glutamate levels [1] = assay: Effect of oxaloacetate administration on blood glutamate and aspartate levels in healthy animals; design: effect on glutamate levels: dose or concentration left out as unconfirmed
Method: The oxaloacetate used (Sigma-Aldrich, Ref, 171263, 95%) was dissolved in saline solution to a concentration of 10 mg/mL and the pH adjusted to 7.4. […]
(§1) The study protocols for male Sprague-Dawley (SD) rats (Charles River Laboratories; France) weighing between 300 and 350 g were approved by the Animal Use and Care Committee at the Hospital de Santiago de Compostela.
Anaesthesia was induced by inhalation of 5% sevoflurane in a mixture of nitrous oxide and oxygen (70/30). A rectal temperature of 37.5° C. was maintained. Glucose levels (180-220 mg/dL) were analysed prior to the intervention.
(§2) Aspartate and glutamate levels in blood were analysed according to the method described in the following reference (White, J. A., R. J. Hart, and J. C. Fry, An evaluation of the Waters Pico-Tag system for the amino-acid analysis of food materials. J Automat Chem, 1986. 8(4): p. 170-7).
Likewise, no changes in aspartate levels were observed (FIG. 1b).
This increase in aspartate levels confirms that glutamate is being metabolised by the enzyme GOT as a result of oxaloacetate treatment.
The […] and aspartate levels in blood were established in a control group treated with saline.

blood glutamate levels [2] = assay: Effect of oxaloacetate on blood glutamate levels in an animal model of focal ischaemia (MCAO); details: 3.5 mg/100 g IV 90 minutes post-occlusion, 4 hours post-occlusion
Method: The oxaloacetate used (Sigma-Aldrich, Ref, 171263, 95%) was dissolved in saline solution to a concentration of 10 mg/mL and the pH adjusted to 7.4. As the average weight of the experimental animals was 325 g and the dose administered was 3.5 mg/100 g body weight, each animal received an average volume of 1.2 mL of 10 mg/mL oxaloacetate.
as §1
Anaesthesia was induced by inhalation of 5% sevoflurane in a mixture of nitrous oxide and oxygen (70/30). A rectal temperature of 37.5° C. was maintained. Glucose levels (180-220 mg/dL) were analysed prior to the intervention. […]
as §2
Two groups were designed: an MCAO group treated with saline (control group) and an MCAO group treated with 3.5 mg/100 g oxaloacetate IV 90 minutes post-occlusion. The blood glutamate levels and infarct and oedema volumes were determined in both groups. […]

[3] = test system: Middle cerebral artery occlusion (MCAO) model of cerebral ischaemia; assay: Infarct and oedema volumes by magnetic resonance imaging in the MCAO model of cerebral ischaemia; details: 3.5 mg/100 g IV 90 minutes post-occlusion
Method: The oxaloacetate used (Sigma-Aldrich, Ref, 171263, 95%) was dissolved in saline solution to a concentration of 10 mg/mL and the pH adjusted to 7.4. As the average weight of the experimental animals was 325 g and the dose administered was 3.5 mg/100 g body weight, each animal received an average volume of 1.2 mL of 10 mg/mL oxaloacetate. The study protocols for male Sprague-Dawley (SD) rats (Charles River Laboratories; France) weighing between 300 and 350 g were approved by the Animal Use and Care Committee at the Hospital de Santiago de Compostela. Anaesthesia was induced by inhalation of 5% sevoflurane in a mixture of nitrous oxide and oxygen (70/30). A rectal temperature of 37.5° C. was maintained. Glucose levels (180-220 mg/dL) were analysed prior to the intervention. Middle cerebral artery occlusion (MCAO) was used as a model of cerebral ischaemia, as described in the literature (Longa, E. Z., et al., Reversible middle cerebral artery occlusion without craniectomy in rats. Stroke, 1989. 20(1): p. 84-91). […] The infarct and oedema volumes were determined by magnetic resonance imaging. […] The blood glutamate levels and infarct and oedema volumes were determined in both groups. […]

For O=C(O)CC(=O)C(=O)O [oxaloacetate], the “effect on glutamate levels” value (blood glutamate levels [1]; administration via bolus (IV)) was “no effect”, the “decrease in serum glutamate levels with respect to basal levels” value (blood glutamate levels [1]; healthy animals, 3.5 mg/100 g IV, two hours post-administration) was 60% and the “drop of blood glutamate levels below basal levels” value (blood glutamate levels [2]) was 50%. For the same compound, the “infarct volume smaller than in the control group” value ([3]; 24 hours post-ischaemia) was “approximately 40%” and the “decrease of infarct volume” value ([3]; at 7 days) was 80%.

Reference: patent US20130131178A1, “USE OF OXALOACETATE IN THE TREATMENT OF ISCHAEMIA” (UNIVERSIDADE DE SANTIAGO DE COMPOSTELA, priority 2010, published 2013)
